Laboratory results taken from patent US8283312B2, “Compositions and methods for modulating body weight and treating obesity-related disorders” (The Research Foundation of State University of New York, priority 2005, dated 2012).
Read-outs that look alike come from different tables or passages of the source. Where no end group is shown, it is not given here. The star is where a group is joined. Octanoyl = CCCCCCCC(=O)*

Columns and labels:
[1] = tested on: RYGB rats; test: Food intake and body weight of RYGB rats given test substance via implanted intraperitoneal pump; format: in vivo, rat
Experimental: Daily Measurements: Postoperatively, daily body weight (BW) and caloric intake were measured each morning. The PF group was given the average food intake consumed the previous day by the RYGB group. Daily changes in BW, plotted every three day, are shown in FIG. 2 and the mean change per post-operative time periods are expressed in Table 1 using the same construct as earlier reported in our previous study (6).
A pump (Model 2002, Alza Corp. Palo Alto, Calif.) was implanted i.p. in each of 5 RYGB rats thirty days after RYGB. The pump was loaded with either the PYY receptor antagonist, B11E0246 (TOCRIS, Ellisville, Mo.), or a control solution (DMSO), and released its ingredient at the rate of about 8.3 μl/day (360 nm B11E0246/Kg/day). Food intake was measured as described above.
(§1) In a second experiment, a pump was implanted i.p. in each of 5 RYGB rats thirty days after RYGB. The pump was loaded with either ghrelin, or a control solution (DMSO), and released its ingredient at the rate of 8.3 μl/day (60 ng ghrelin/Kg/day). Food intake was measured as described above.
as §1, with “third” for “second”, “either a combination of the PYY receptor antagonist B11E0246 and” for “either”, “(DMSO). The pump” for “(DMSO), and”, “(360 nm B11E0246/Kg/day and 60” for “(60”

[2] = tested on: obese subjects; conditions: 12 obese subjects, as compared to 12 lean subjects; cited from earlier work
[3] = tested on: mice; conditions: cited from earlier work
[4] = physiological levels of ghrelin (60 ng/Kg/day) alone, i.p. pump, FIG. 7

## N=C(N)NCCC[C@H](NC(=O)CC1(CC(=O)N2CCN(C3c4ccccc4NC(=O)c4ccccc43)CC2)CCCC1)C(=O)NCCn1c(=O)n(-c2ccccc2)n(-c2ccccc2)c1=O (stereo partly drawn) [B11E0246]
[1]; i.p. pump implanted thirty days after RYGB, 360 nm B11E0246/Kg/day, vs control solution (DMSO), FIG. 6
  daily and cumulative food intake: increased daily and cumulative food intake

## PYY(3-36): functional analog of PYY; peptide consisting of amino acid 3 to 36 of PYY
[2]
  decrease of ad libitum food intake per meal: 33%
[3]; freely feeding mice
  food intake: unchanged
[3]; single intraperitoneal injection, 24 h fasted mice
  food intake: significant reduction of food intake for 24 h but not for 48 h

## ghrelin: peptide of 28 amino acids, in which the serine 3 residue is n-octanoylated; gut hormone that stimulates food intake (GSS(Octanoyl)FLSPEHQRVQQRKESKKPPAKLQPR; UniProt Q9UBU3 24-51, looked up)
[1]; [4]
  body weight: did not significantly increase food intake or body weight
  food intake: did not significantly increase food intake or body weight
